Data on three compounds can be found in patent publication US20080108608A1, “Pyrimidines With Tie2 (Tek) Activity” (ASTRAZENECA AB, priority 2003, published 2008).

Assay [1] addresses T1, Tie2 receptor (Homo sapiens, UniProt Q02763).
T1 construct: natural cell lines or primary cells which are known to express the receptor of choice; endogenous in cells; host or cells: EA.hy926/B3 cells (HUVEC named as an alternative)
Kind of assay: Cellular Tie2 autophosphorylation assay (Test (b)). The class given is cell-based. As to conditions: Ang1 ligand stimulated whole cells, e.g. EA.hy926/B3; read-out: IC50 (μM) Test (b): Inhibition of autophosphorylation of Tie2 receptor tyrosine kinase. The text has this: b. Cellular Tie2 Autophosphorylation Assay
This assay is based on measuring the ability of compounds to inhibit autophosphorylation of the Tie2 receptor which normally leads to the production of “activated” receptor that in turn initiates the particular signal transduction pathways associated with the receptor function.
Autophosphorylation can be achieved by a number of means. It is known that expression of recombinant kinase domains in baculoviral systems can lead to the production of phosphorylated and activated receptor. It is also reported that over expression of receptors in recombinant cell lines can itself lead to receptor autophosphorylation in the absence of the ligand (Heldin C-H. 1995 Cell: 80, 213-223; Blume-J. P, Hunter T. 2001 Nature: 411, 355-65). Furthermore, there are numerous literature examples in which chimaeric receptors have been constructed. In these cases the natural, external cell surface domain of the receptor has been replaced with that of a domain which is known to be readily dimerised via the addition of the appropriate ligand (e.g. TrkA-Tie2/NGF ligand (Marron, M. B., et al., 2000 Journal of Biological Chemistry: 275:39741-39746) or C-fins-Tie-1/CSF-1 ligand (Kontos, C. D., et al., 2002 Molecular and Cellular Biology: 22, 1704-1713). Thus when the chimaeric receptor expressed in a host cell line and the respective ligand is added, this induces autophosphorylation of the chimeric receptor's kinase domain. This approach has the advantage of often allowing a known (and often easily obtained) ligand to be used instead of having to identify and isolate the natural ligand for each receptor of interest.
Naturally if the ligand is available one can use natural cell lines or primary cells which are known to express the receptor of choice and simply stimulate with ligand to achieve ligand induced phosphorylation. […]

Assay [2] deals with T2, Tie2 receptor tyrosine kinase (Homo sapiens, UniProt Q02763).
T2 construct: consist of only the intracellular portion C-terminal portion of the respective receptor, within which is found the kinase domain; made in house; host or cells: baculovirus/Sf21 insect cells (or alternative equivalent); used as cleared cell lysate
Kind of assay: In vitro receptor tyrosine kinase inhibition assay (Test (a)), ELISA based. The class given is biochemical. The conditions noted are these: recombinant human Tie2 kinase domain. On the procedure:
a. In Vitro Receptor Tyrosine Kinase Inhibition Assay
To test for inhibition of Tie2 receptor tyrosine kinase, compounds are evaluated in a non-cell based protein kinase assay by their ability to inhibit the protein kinase enzyme phosphorylation of a tyrosine containing polypeptide substrate in an ELISA based microtitre plate assay. In this particular case, the assay was to determine the IC50, for three different recombinant human tyrosine kinases Tie2, KDR and Flt.
To facilitate production of the tyrosine kinases, recombinant receptor genes were produced using standard molecular biology cloning and mutagenesis techniques. These recombinant proteins fragments encoded within these genes consist of only the intracellular portion C-terminal portion of the respective receptor, within which is found the kinase domain. The recombinant genes encoding the kinase domain containing fragments were cloned and expressed in standard baculovirus/Sf21 system (or alternative equivalent) […]
Constitutive kinase activity of these recombinant proteins was determined by their ability to phosphorylate a synthetic peptide (made up of a random co-polymer of Glutamic Acid, Alanine and Tyrosine in the ratio of 6:3:1). […]
The immobilised phospho-peptide product of the reaction was detected by immunological methods. […] Following extensive washing with PBS-T, HRP activity in each well of the plate was measured colorimetrically using 22′-Azino-di-[3-ethylbenzthiazoline sulfonate (6)]diammonium salt crystals ABTS (Sigma P4922—prepared as per manufactures instructions) as a substrate incubated for 30-45 minutes to allow colour development, before 100 ul of 1M H2SO4 was added to stop the reaction.
Quantification of colour development and thus enzyme activity was achieved by the measurement of absorbance at 405 nm on a Molecular Devices ThermoMax microplate reader. Kinase inhibition for a given compound was expressed as an IC50 value. […] The range of phosphorylation was calculated from the positive (vehicle plus ATP) and negative (vehicle minus ATP) control values.
(An ELISA detects its analyte on a solid surface through an enzyme-linked reagent.)

T2 sequence (Q02763 770-1124 limits assumed): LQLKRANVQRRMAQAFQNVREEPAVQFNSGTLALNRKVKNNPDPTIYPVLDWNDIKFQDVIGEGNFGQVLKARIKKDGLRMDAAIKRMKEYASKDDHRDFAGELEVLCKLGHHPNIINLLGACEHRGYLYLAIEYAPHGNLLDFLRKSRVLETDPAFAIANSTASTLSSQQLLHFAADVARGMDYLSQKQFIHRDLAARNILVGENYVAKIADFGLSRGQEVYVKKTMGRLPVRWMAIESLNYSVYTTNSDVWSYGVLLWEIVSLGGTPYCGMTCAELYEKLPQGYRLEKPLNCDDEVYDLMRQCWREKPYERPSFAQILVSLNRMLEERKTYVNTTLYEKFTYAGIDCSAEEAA
T1 sequence (Q02763 23-1124): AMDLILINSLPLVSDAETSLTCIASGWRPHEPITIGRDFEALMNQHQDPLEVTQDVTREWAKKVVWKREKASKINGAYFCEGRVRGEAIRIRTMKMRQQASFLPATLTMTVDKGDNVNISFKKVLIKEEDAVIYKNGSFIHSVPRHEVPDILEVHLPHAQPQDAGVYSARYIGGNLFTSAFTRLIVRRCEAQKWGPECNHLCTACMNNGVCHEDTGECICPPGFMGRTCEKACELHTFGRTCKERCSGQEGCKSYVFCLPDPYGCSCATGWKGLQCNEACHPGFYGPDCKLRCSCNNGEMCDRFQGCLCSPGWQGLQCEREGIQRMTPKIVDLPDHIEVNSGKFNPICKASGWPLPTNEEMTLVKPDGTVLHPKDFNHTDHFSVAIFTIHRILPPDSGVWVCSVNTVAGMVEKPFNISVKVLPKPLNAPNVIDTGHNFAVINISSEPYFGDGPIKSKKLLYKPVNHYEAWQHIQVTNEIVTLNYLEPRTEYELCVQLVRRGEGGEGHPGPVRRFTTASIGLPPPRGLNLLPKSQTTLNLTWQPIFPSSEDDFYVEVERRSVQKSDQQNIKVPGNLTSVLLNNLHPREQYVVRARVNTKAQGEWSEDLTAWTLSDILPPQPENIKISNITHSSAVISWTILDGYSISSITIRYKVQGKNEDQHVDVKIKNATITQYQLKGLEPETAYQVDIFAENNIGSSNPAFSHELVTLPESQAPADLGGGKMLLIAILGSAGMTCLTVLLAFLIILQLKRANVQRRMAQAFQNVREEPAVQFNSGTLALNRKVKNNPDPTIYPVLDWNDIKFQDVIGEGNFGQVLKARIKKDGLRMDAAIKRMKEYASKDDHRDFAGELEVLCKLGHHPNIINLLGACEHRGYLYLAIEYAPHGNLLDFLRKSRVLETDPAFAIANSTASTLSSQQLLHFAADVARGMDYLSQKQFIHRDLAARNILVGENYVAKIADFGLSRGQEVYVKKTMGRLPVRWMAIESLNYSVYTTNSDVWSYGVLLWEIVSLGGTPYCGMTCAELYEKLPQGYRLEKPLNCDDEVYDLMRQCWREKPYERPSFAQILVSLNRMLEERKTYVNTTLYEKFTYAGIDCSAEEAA

A word on the IC50: it is the point on the concentration scale where inhibition reaches its midpoint. Take `Cc1cc(NC(=O)Nc2cccc(C#Cc3cnc(N)nc3)c2)on1` [Example 19, N-{3-[(2-aminopyrimidin-5-yl)ethynyl]phenyl}-N′-(3-methylisoxazol-5-yl)urea]: the IC50 in assay [1] was found to be 0.337 µM; in assay [2], 19.9 µM.

Consider `CC(C)(C)c1cc(NC(=O)Nc2cccc(C#Cc3cnc(NCCN4CCCC4)nc3)c2)no1` [Example 33, N-(5-tert-butylisoxazol-3-yl)-N′-[3-({2-[(2-pyrrolidin-1-ylethyl)amino]pyrimidin-5-yl}ethynyl)phenyl]urea], for which the IC50 worked out at 2.59 µM in assay [1] and 5.7 µM in assay [2].

Turning to `CC(C)(C)c1nnc(NC(=O)Nc2cccc(C#Cc3cnc(NCCN4CCCC4)nc3)c2)s1` [Example 48, N-(5-tert-butyl-1,3,4-thiadiazol-2-yl)-N′-[3-({2-[(2-pyrrolidin-1-ylethyl)amino]pyrimidin-5-yl}ethynyl)phenyl]urea], the IC50 in assay [1] is 3.29 µM; in assay [2] it was 74.9 µM.
